Measurements as given in article doi:10.64898/2025.12.09.693172, “Agonism of mosquito and human transient receptor potential ankyrin 1 (TRPA1) channels by the natural drimane sesquiterpene cinnamodial” (bioRxiv, 2025).

Assays:
HsTRPA1 [1] = target: T1, HsTRPA1 (Homo sapiens, UniProt O75762); assay: two-electrode voltage clamp, Xenopus oocytes; assay type: cell-based
T1 construct: gene TRPA1; cDNA construct from Saito and Tominaga, cRNA injected into Xenopus laevis oocytes; UniProt id printed for the modelled HsTRPA1 (residues 401-1119)

HsTRPA1 [2] = target: T1, HsTRPA1; assay: two-electrode voltage clamp, Xenopus oocytes; assay type: cell-based; settings: agonist, ND96 pH 7.5

T1 sequence (O75762 whole entry, the tested form may be a part): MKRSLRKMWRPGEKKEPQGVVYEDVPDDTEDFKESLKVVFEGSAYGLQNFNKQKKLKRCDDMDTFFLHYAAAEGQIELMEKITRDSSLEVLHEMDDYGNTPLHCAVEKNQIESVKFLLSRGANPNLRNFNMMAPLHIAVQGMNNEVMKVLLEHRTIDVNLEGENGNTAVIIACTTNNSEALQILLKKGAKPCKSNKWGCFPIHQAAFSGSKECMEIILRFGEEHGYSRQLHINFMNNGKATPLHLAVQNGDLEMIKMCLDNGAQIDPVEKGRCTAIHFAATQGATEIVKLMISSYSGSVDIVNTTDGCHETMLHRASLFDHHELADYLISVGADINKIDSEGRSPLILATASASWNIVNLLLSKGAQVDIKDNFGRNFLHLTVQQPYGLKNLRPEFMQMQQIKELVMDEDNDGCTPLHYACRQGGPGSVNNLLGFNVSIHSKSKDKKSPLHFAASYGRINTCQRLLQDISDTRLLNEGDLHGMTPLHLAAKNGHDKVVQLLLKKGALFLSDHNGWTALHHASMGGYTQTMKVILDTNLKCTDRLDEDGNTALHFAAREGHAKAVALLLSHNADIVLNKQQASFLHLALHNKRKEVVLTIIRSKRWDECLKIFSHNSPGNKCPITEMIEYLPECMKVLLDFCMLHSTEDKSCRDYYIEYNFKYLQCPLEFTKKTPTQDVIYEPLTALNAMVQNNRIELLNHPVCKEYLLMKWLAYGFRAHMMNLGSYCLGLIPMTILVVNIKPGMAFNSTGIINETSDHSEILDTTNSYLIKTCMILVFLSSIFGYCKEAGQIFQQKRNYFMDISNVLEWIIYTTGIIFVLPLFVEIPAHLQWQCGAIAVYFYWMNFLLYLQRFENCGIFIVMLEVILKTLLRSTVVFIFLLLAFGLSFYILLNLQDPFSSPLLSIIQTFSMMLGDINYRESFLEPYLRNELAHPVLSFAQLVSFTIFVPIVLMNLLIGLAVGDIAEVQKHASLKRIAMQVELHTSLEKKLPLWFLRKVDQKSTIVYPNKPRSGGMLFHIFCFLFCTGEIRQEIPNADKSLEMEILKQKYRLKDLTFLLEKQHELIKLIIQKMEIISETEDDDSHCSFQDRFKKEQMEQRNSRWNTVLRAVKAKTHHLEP

| EC50 (HsTRPA1 [1]) | Compound | % by which ΔIm at 1000 μM is lower than that of 10 μM CDIAL (HsTRPA1 [2]) |
| --- | --- | --- |
| 2.25 µM | CC(=O)O[C@@H]1C=C(C=O)[C@](O)(C=O)[C@@]2(C)CCCC(C)(C)[C@H]12 [CDIAL] |  |
| 0.8 µM | COCCCN(C(=O)CCl)c1nc(-c2ccc(OC)cc2)cs1 [JT010] |  |
|  | CC1=COC(=O)C2C(C)CCC12 (stereo not drawn) [nepetalactone] | 98.8 ± 0.46% |
